Tests used:
surinam grass = test: Test B pre/postemergence surinam grass; format: in vivo, Brachiaria decumbens
In short: (§1)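 Test chemicals in a non-phytotoxic solvent mixture with surfactant were sprayed preemergence onto planted seeds and postemergence onto plants 2 to 18 cm tall (1- to 4-leaf stage). After twelve to sixteen days in a greenhouse, injury was visually rated against untreated controls from 0 (no effect) to 10 (complete control).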

rape = test: Test B pre/postemergence rape; format: in vivo, Brassica napus
In short: as §1

pigweed = test: Test B pre/postemergence pigweed; format: in vivo, Amaranthus retroflexus
In short: as §1

wheat = test: Test B pre/postemergence wheat; format: in vivo, Triticum aestivum
In short: as §1

soybean = test: Test B pre/postemergence soybean; format: in vivo, Glycine max
In short: as §1

bedstraw = test: Test B pre/postemergence bedstraw; format: in vivo, Galium aparine; settings: Preemergence
In short: as §1

crabgrass = test: Test B pre/postemergence crabgrass; format: in vivo, Digitaria sanguinalis
In short: as §1

purple nutsedge = test: Test B pre/postemergence purple nutsedge; format: in vivo, Cyperus rotundus
In short: as §1

cocklebur = test: Test B pre/postemergence cocklebur; format: in vivo, Xanthium strumarium
In short: as §1

morningglory = test: Test B pre/postemergence morningglory; format: in vivo, Ipomoea hederacea
In short: as §1

wild oat = test: Test B pre/postemergence wild oat; format: in vivo, Avena fatua
In short: as §1

velvetleaf = test: Test B pre/postemergence velvetleaf; format: in vivo, Abutilon theophrasti
In short: as §1

giant foxtail = test: Test B pre/postemergence giant foxtail; format: in vivo, Setaria faberii
In short: as §1

corn = test: Test B pre/postemergence corn; format: in vivo, Zea mays
In short: as §1

blackgrass = test: Test B pre/postemergence blackgrass; format: in vivo, Alopecurus myosuroides
In short: as §1

sugar beet = test: Test B pre/postemergence sugar beet; format: in vivo, Beta vulgaris
In short: as §1

[1] = Postemergence, Rate 62 g/ha, scale 0 to 10, 0 is no effect, 10 is complete control
[2] = Postemergence, Rate 125 g/ha, scale of 0 to 10 where 0 is no effect and 10 is complete control
[3] = Preemergence, Rate 125 g/ha, scale of 0 to 10 where 0 is no effect and 10 is complete control
[4] = Preemergence, Rate 250 g/ha, scale 0 (no effect) to 10 (complete control)
[5] = Rate 250 g/ha, Postemergence, scale 0 to 10, 0 is no effect, 10 is complete control
[6] = Rate 500 g/ha, Postemergence, scale 0 to 10, 0 is no effect, 10 is complete control
[7] = Rate 500 g/ha, Preemergence, scale 0 to 10 (0 no effect, 10 complete control)
[8] = Rate 62 g/ha, Preemergence, scale 0 to 10

## C#CCCn1c(=O)on(C(=O)N(c2ccc(F)cc2F)C(C)C)c1=O [Compound 744]
Surinam grass; [1]
  Plant response rating, B. signalgrass: 0
Surinam grass; [2]
  B. signalgrass plant response rating: 2
Surinam grass; Preemergence, Rate 62 g/ha, scale of 0 to 10 where 0 is no effect and 10 is complete control
  B. signalgrass plant response rating: 5
Surinam grass; [3]
  Plant response rating, B. signalgrass: 8
Surinam grass; [4]
  B. signalgrass plant response rating: 9
Surinam grass; [5]
  B. signalgrass plant response rating: 5
Surinam grass; [6]
  B. signalgrass plant response rating: 6
Surinam grass; [7]
  B. signalgrass plant response rating: 9
rape; [1]
  Plant response rating, Rape: 0
rape; [2]
  Rape plant response rating: 2
rape; [3]
  Plant response rating, Rape: 6
rape; [4]
  Rape plant response rating: 6
rape; [8]
  Rape plant response rating: 4
rape; [5]
  Rape plant response rating: 3
rape; [6]
  Rape plant response rating: 8
rape; [7]
  Rape plant response rating: 9
pigweed; [1]
  Plant response rating, Redroot pigweed: 0
pigweed; [2]
  Redroot pigweed plant response rating: 0
pigweed; [3]
  Plant response rating, Redroot pigweed: 8
pigweed; [4]
  Redroot pigweed plant response rating: 9
pigweed; [8]
  Redroot pigweed plant response rating: 4
pigweed; [5]
  Redroot pigweed plant response rating: 0
pigweed; [6]
  Redroot pigweed plant response rating: 8
pigweed; [7]
  Redroot pigweed plant response rating: 9
wheat; [1]
  Plant response rating, Wheat: 0
wheat; [2]
  Wheat plant response rating: 0
wheat; [3]
  Plant response rating, Wheat: 0
wheat; [4]
  Wheat plant response rating: 3
wheat; [8]
  Wheat plant response rating: 0
wheat; [5]
  Wheat plant response rating: 5
wheat; [6]
  Wheat plant response rating: 7
wheat; [7]
  Wheat plant response rating: 5
soybean; [1]
  Plant response rating, Soybean: 2
soybean; [2]
  Soybean plant response rating: 3
soybean; [3]
  Plant response rating, Soybean: 0
soybean; [4]
  Soybean plant response rating: 0
soybean; [8]
  Soybean plant response rating: 0
soybean; [5]
  Soybean plant response rating: 4
soybean; [6]
  Soybean plant response rating: 5
soybean; [7]
  Soybean plant response rating: 0
bedstraw; Rate 125 g/ha, scale of 0 to 10 where 0 is no effect and 10 is complete control
  Plant response rating, Bedstraw: 0
bedstraw; Rate 250 g/ha, scale 0 (no effect) to 10 (complete control)
  Bedstraw plant response rating: 0
bedstraw; Rate 62 g/ha, scale 0 to 10
  Bedstraw plant response rating: 0
bedstraw; Rate 500 g/ha, scale 0 to 10 (0 no effect, 10 complete control)
  Bedstraw plant response rating: 8
crabgrass; [1]
  Plant response rating, Crabgrass: 3
crabgrass; [2]
  Crabgrass plant response rating: 4
crabgrass; [3]
  Plant response rating, Crabgrass: 9
crabgrass; [4]
  Crabgrass plant response rating: 9
crabgrass; [8]
  Crabgrass plant response rating: 9
crabgrass; [5]
  Crabgrass plant response rating: 8
crabgrass; [6]
  Crabgrass plant response rating: 9
crabgrass; [7]
  Crabgrass plant response rating: 10
Purple nutsedge; [1]
  Plant response rating, Nutsedge: 0
Purple nutsedge; [3]
  Plant response rating, Nutsedge: 0
Purple nutsedge; [4]
  Nutsedge plant response rating: 5
Purple nutsedge; [5]
  Nutsedge plant response rating: 3
Purple nutsedge; [6]
  Nutsedge plant response rating: 6
Purple nutsedge; [7]
  Nutsedge plant response rating: 7
cocklebur; [1]
  Plant response rating, Cocklebur: 0
cocklebur; [2]
  Cocklebur plant response rating: 0
cocklebur; [3]
  Plant response rating, Cocklebur: 0
cocklebur; [4]
  Cocklebur plant response rating: 0
cocklebur; [8]
  Cocklebur plant response rating: 0
cocklebur; [5]
  Cocklebur plant response rating: 0
cocklebur; [6]
  Cocklebur plant response rating: 0
cocklebur; [7]
  Cocklebur plant response rating: 0
morningglory; [1]
  Plant response rating, Morningglory: 2
morningglory; [2]
  Morningglory plant response rating: 2
morningglory; [3]
  Plant response rating, Morningglory: 0
morningglory; [4]
  Morningglory plant response rating: 0
morningglory; [8]
  Morningglory plant response rating: 0
morningglory; [5]
  Morningglory plant response rating: 2
morningglory; [6]
  Morningglory plant response rating: 4
morningglory; [7]
  Morningglory plant response rating: 0
Wild oat; [1]
  Plant response rating, Wild oats: 0
Wild oat; [2]
  Wild oats plant response rating: 0
Wild oat; [3]
  Plant response rating, Wild oats: 8
Wild oat; [4]
  Wild oats plant response rating: 9
Wild oat; [8]
  Wild oats plant response rating: 3
Wild oat; [5]
  Wild oats plant response rating: 0
Wild oat; [6]
  Wild oats plant response rating: 2
Wild oat; [7]
  Wild oats plant response rating: 9
velvetleaf; [1]
  Plant response rating, Velvetleaf: 0
velvetleaf; [2]
  Velvetleaf plant response rating: 0
velvetleaf; [3]
  Plant response rating, Velvetleaf: 0
velvetleaf; [4]
  Velvetleaf plant response rating: 0
velvetleaf; [8]
  Velvetleaf plant response rating: 0
velvetleaf; [5]
  Velvetleaf plant response rating: 0
velvetleaf; [6]
  Velvetleaf plant response rating: 2
velvetleaf; [7]
  Velvetleaf plant response rating: 2
Giant foxtail; [1]
  Plant response rating, Giant foxtail: 6
Giant foxtail; [2]
  Giant foxtail plant response rating: 8
Giant foxtail; [3]
  Plant response rating, Giant foxtail: 9
Giant foxtail; [4]
  Giant foxtail plant response rating: 9
Giant foxtail; [8]
  Giant foxtail plant response rating: 9
Giant foxtail; [5]
  Giant foxtail plant response rating: 8
Giant foxtail; [6]
  Giant foxtail plant response rating: 8
Giant foxtail; [7]
  Giant foxtail plant response rating: 10
corn; [1]
  Plant response rating, Corn: 0
corn; [2]
  Corn plant response rating: 0
corn; [3]
  Plant response rating, Corn: 0
corn; [4]
  Corn plant response rating: 5
corn; [8]
  Corn plant response rating: 0
corn; [5]
  Corn plant response rating: 3
corn; [6]
  Corn plant response rating: 5
corn; [7]
  Corn plant response rating: 7
blackgrass; [1]
  Plant response rating, Blackgrass: 5
blackgrass; [2]
  Blackgrass plant response rating: 5
blackgrass; [3]
  Plant response rating, Blackgrass: 9
blackgrass; [4]
  Blackgrass plant response rating: 9
blackgrass; [8]
  Blackgrass plant response rating: 6
blackgrass; [5]
  Blackgrass plant response rating: 5
blackgrass; [6]
  Blackgrass plant response rating: 5
blackgrass; [7]
  Blackgrass plant response rating: 9
Sugar beet; [1]
  Plant response rating, Sugarbeets: 0
Sugar beet; [2]
  Sugarbeets plant response rating: 0
Sugar beet; [3]
  Plant response rating, Sugarbeets: 2
Sugar beet; [4]
  Sugarbeets plant response rating: 7
Sugar beet; [8]
  Sugarbeets plant response rating: 0
Sugar beet; [5]
  Sugarbeets plant response rating: 0
Sugar beet; [6]
  Sugarbeets plant response rating: 5
Sugar beet; [7]
  Sugarbeets plant response rating: 7
